# Patent US10881105B2, “Method for breaking dormancy in deciduous trees” (Tapazol Chemical Works Ltd., priority 2014, dated 2021)
# Tested on: Black Gem (P. nigra) plums
# Experiment: Bud break assessment after spraying, dormancy release in black gem plums (Example 1)
# Format: in vivo
# Conditions: above 15 grams per liter oil; data not shown
# Procedure: On the day in which spraying was initiated the number of accumulated chilling units was 14 (being equivalent of 200 hours of chilling). The trees were at a stage where 10% of the bulbs were swollen. Three branches facing different directions were selected in each tree. The upper 20 cm in each branch were examined Each branch contained approximately 13 buds. Each bud was evaluated for bud progression on three separate occasions and bud progression percentages were normalized across the examined branches [table] [table]
structure (smiles),measurement,value
"O=[N+]([O-])c1cc(C(F)(F)F)c(Cl)c([N+](=O)[O-])c1Nc1ncc(C(F)(F)F)cc1Cl [fluazinam, 3-chloro-N-(3-chloro-5-trifluoromethyl-2-pyridyl)-α,α,α-trifluoro-2,6-dinitro-p-toluidine]",efficacy of the composition versus concentration of Fluazinam in oil (regression),the efficacy of the composition decreased
